Results on 1 molecule are retold here after ChEMBL document CHEMBL4842393, “Targeting KRAS G12D Mutant for the Potential Treatment of Pancreatic Cancer” (ACS Med Chem Lett, 2021).

The target of the experiment is GTPase KRas (Homo sapiens, UniProt P01116, G12D). The experiment in a line: Displacement of Cy5-labelled tracer from biotinylated GDP-loaded human recombinant KRAS G12D mutant (1 to 169 residues) measured after 60 mins by TR-FRET assay. (TR-FRET usually uses a lanthanide donor and a delayed reading to cut background.)

The structures appear in SMILES notation.

As for `Oc1cc(-c2ncc3c(N4CC5CCC(C4)N5)nc(OCC45CCCN4C(CF)CC5)nc3c2F)c2ccccc2c1` (stereo unspecified), the IC50 (in general, the point on the concentration scale where inhibition reaches its midpoint) came to 0.1 nM.
